# Biological target: CapF
# Assay: SPR binding to immobilized CapF
# Design: species or system Staphylococcus aureus
# Conditions: 25 °C
# Excerpt: To identify small-molecule inhibitors of CapF we employed fragment-based methodologies (Supplementary Information Figure S1)[13][14]. A fragment library consisting of 1,994 compounds was obtained from the Drug Discovery Initiative program (The University of Tokyo, see the Methods section for an brief description of the features of this library). This library was employed to screen for potential inhibitors of CapF using the technique of surface plasmon resonance (SPR). This screening methodology identified compounds with the ability to bind to the target protein but not by their inhibitory potency. Inhibition was only assessed with the selected hit compound using two separate enzymatic assays (see below). To maximize the sensitivity of the SPR signal the microtiter-based assay mode was employed. The values of the parameters CV (1.0%) and Z-factor (0.93) were monitored throughout the screen. […]
# A total of 15 compounds selected from the library screening were next evaluated with SPR at three different concentrations (100 μM, 10 μM, and 1 μM) to detect compounds giving false positive signals, which are generally known as nonspecific and promiscuous binders. […] Lastly, we determined the binding affinity of these five compounds for CapF with SPR. […]
smiles,measurement,value
C=C(C)c1ccccc(=O)c1O [3-isopropenyl-tropolone],binding affinity for CapF with SPR,sub-millimolar

# Reference: paper PMC5393024, “Discovery and characterization of natural tropolones as inhibitors of the antibacterial target CapF from Staphylococcus aureus” (Scientific Reports, 2015)
